Laboratory results published in patent US6727257B1, “5-(heterocyclic alkyl)-6-aryl-dihydropyrimidines” (Synaptic Pharmaceutical Corporation, priority 1994, dated 2004).
Structures can show the parent of a compound that is named as a salt.

`COC(=O)C1=C(C)N=C(C)N(CCCCCNCCCc2ccccc2)C1c1ccc(F)c(F)c1` (stereo not drawn) (as salt: HCl) [Example 61, 6-(3,4-Difluorophenyl)-1,6-dihydro-5-methoxycarbonyl-2,4-dimethyl-1-(5-(3-phenylpropylamino)pentyl)pyrimidine] showed a melting point of 95 to 97 °C.
`COC(=O)C1=C(C)N=C(C)N(CCCC(O)CN2CCC(c3ccccn3)CC2)C1c1ccc(F)c(F)c1` (single isomer, unassigned; (+)) (as salt: HCl) [Example 62, (+)-6-(3,4-Difluorophenyl)-1,6-dihydro-1-(4-hydroxy-5-(4-(2-pyridyl)piperidin-1-yl)pentyl)-5-methoxycarbonyl-2,4-dimethylpyrimidine] gave a melting point of 163 to 165 °C.
Work on `COC(=O)C1=C(C)NC(=O)N(C(=O)NCCCN2CCC(c3ccccn3)CC2)C1c1ccc(F)c(F)c1` (stereo not drawn) (as salt: hydrochloride) [Example 21, 6-(3,4-Difluorophenyl)-5-methoxycarbonyl-4-methyl-2-oxo-1-{N-[4-(2-pyridyl)-piperidine-1-yl]propyl)carboxamido-1,2,3,6-tetrahydropyrimidine Dihydrochloride] yielded a melting point of 170 to 174 °C.
In the case of `CNC(=O)C1=C(C)N=C(C)N(CCCCCN2CCC(C(=O)OC)(c3ccccc3)CC2)C1c1ccc(F)cc1F` (stereo not drawn) (as salt: HCl), the melting point is reported as 152 to 155 °C.
For `COCN1C(C)=NC(C)=C(C(=O)NCCCN2CCC(C(=O)OC)(c3ccccc3)CC2)C1c1ccc(F)c(F)c1` (stereo not drawn), the melting point was 53 to 57 °C.
Compound `COC(=O)C1=C(C)N=C(C)N(CCCCCN2CCC(C(=O)OC)(c3ccccc3)CC2)C1c1ccc(F)c(F)c1` (stereo not drawn) (as salt: HCl) [Example 23, 6-(3,4-Difluorophenyl)-1,6-dihydro-5-methoxycarbonyl-1-(5-(4-methoxycarbonyl-4-phenylpiperidin-1-yl)-pentyl)-2,4-dimethylpyrimidine] has a melting point of 170 to 176 °C.
